Data: publication PMC6378053, “Flavonol 7-O-Glucoside Herbacitrin Inhibits HIV-1 Replication through Simultaneous Integrase and Reverse Transcriptase Inhibition” (Evidence-based Complementary and Alternative Medicine : eCAM, 2019)

How the values were obtained:
[1] = MTT cytotoxicity assay on MT-4 cells; conditions: human
Procedure: (§1) The permanent human T-cell lines MT-4 and MT-2 were maintained at 37°C in a humidified atmosphere containing 5% CO2 in RPMI 1640 (Sigma-Aldrich) medium supplemented with 10% heat-inactivated fetal bovine serum (Sigma-Aldrich), 100 IU/ml penicillin and 100 μg/ml streptomycin (Sigma-Aldrich). HIV-1 (HTLV-IIIB) was obtained from the culture supernatant of MT-4/HTLV-IIIB cells. The 50% HIV-1 tissue culture infectious dose (TCID50) on MT-4 cells was determined by virus yield assay.
(§2) To determine the in vitro cytotoxic effect of the compounds, viability of the treated and untreated cells was measured by a colorimetric assay as described earlier. Briefly, MT-4 and MT-2 cells were seeded into a 96-well plate at a density of 15,000 cells/well in the presence of different concentrations of the compounds dissolved in dimethyl sulfoxide (DMSO). […] After 4 days of incubation, cell cultures were analyzed using MTT cell viability assay (Sigma-Aldrich) to monitor the reduction of 3-(4,5-dimethylthiazol-2-yl)-2,5-diphenyl-tetrazolium bromide (MTT) to a blue formazan product by metabolically active cells. To initiate the cell viability assay, 20 μl MTT (5 mg/mL dissolved in PBS) was added to each well. After 4 h incubation cell supernatant was removed and 100 μl DMSO per well was added. The absorbance was measured at 550 nm on a microplate reader after mixing the contents thoroughly. The cytotoxicity tests were implemented in two biological replicates.

[2] = MTT cytotoxicity assay on MT-2 cells; conditions: human
Procedure: as §1, §2

HIV-1 (HTLV-IIIB) = test: Cell-based antiviral assay, HIV-1 p24 core protein ELISA in supernatants of infected MT-4 and MT-2 cells; conditions: nontoxic concentrations (2.1 μM), 5 days of incubation
Procedure: MT-4 and MT-2 cells at a density of 15,000 cells/well were incubated in 96-well plates in the presence of compounds at 37°C in 5% CO2 for 5 days. Simultaneously, cells were exposed to HIV-1 (2,32∗10^2 TCID50/ml). Untreated and infected or AZT (3′-azido-3′-deoxythymidine)-treated cells were used as controls. After the incubation period, diluted culture supernatants were analyzed for HIV production by determining the amount of viral core protein using a p24 enzyme-linked immunosorbent assay (ELISA) kit (Fujirebio) according to manufacturer's instructions. The results were expressed relative to the control of untreated HIV-1 infected cells. The experiment was performed in four biological replicates. Statistical analysis was performed by one-way ANOVA followed by Bonferroni's post hoc test.

[3] = target: T1, recombinant HIV-1 reverse transcriptase (RT) (Human immunodeficiency virus type 1 group M subtype B, UniProt P04585); test: HIV-1 reverse transcriptase inhibition, colorimetric RT kit; format: biochemical; conditions: 21.5 μM concentration
T1 construct: activity of recombinant HIV-1 reverse transcriptase (RT) and integrase (IN); purchased Roche Diagnostics
Procedure: (§3) Inhibitory effects of compounds on the HIV-1 reverse transcriptase and integrase activity were measured by a colorimetric RT kit (Roche Diagnostics) and IN assay kit (Express Biotech International) according to the instructions of the manufacturer. Reverse transcriptase assay measures the amount of labeled nucleotides incorporated during the transcription process of RNA. Nevirapine, a nonnucleoside RT inhibitor, was used as a positive control in the RT reaction. HIV-1 integrase assay measures the integrase activity after 3′-end processing of the HIV-1 LTR donor substrate DNA and catalyzing the strand-transfer recombination reaction to integrate the donor substrate DNA into the target substrate DNA. Sodium azide was applied as a positive control compound in the experiments measuring the integrase activity. The RT and IN inhibition assays were performed in two biological replicates. Statistical analysis was performed by one-way ANOVA followed by Bonferroni's post hoc test, and a planned comparison by unpaired T-test was also performed (see Figure 3(b)).

[4] = target: T2, recombinant HIV-1 integrase (IN) (Human immunodeficiency virus type 1 group M subtype B, UniProt P04585); test: HIV-1 integrase inhibition, IN assay kit; format: biochemical; conditions: 2.15 μM concentration
T2 construct: activity of recombinant HIV-1 reverse transcriptase (RT) and integrase (IN); purchased Express Biotech International
Procedure: as §3

HIV-1 [5] = system: HIV-1; design: method as in PMID 25546350; conditions: C8166 cells; cited from earlier work
HIV-1 [6] = system: HIV-1; design: method as in PMID 25546350; conditions: C8166 cells; cited from earlier work; remark: listed apart in the source
HIV-1 BaL, HIV-1 MN = system: HIV-1 BaL, HIV-1 MN; design: method as in PMID 25546350; conditions: TZM-bl cell plus HIV-1 BaL and H9, and PBMC plus HIV-1 MN; read-out: IC50 antiviral effect; cited from earlier work
HIV [7] = system: HIV; design: method as in doi:10.3844/ajidsp.2009.135.141; conditions: normal peripheral blood mononuclear cells (PBMC); cited from earlier work
[8] = system: IN (strand transfer reaction); design: method as in PMID 12213478; conditions: in vitro; cited from earlier work
HIV [9] = system: HIV; design: method as in PMID 12213478; conditions: MT-2 cells; read-out: IC50 HIV infection of MT-2 cells; cited from earlier work
MT-2 cells = conditions: at concentrations as high as 800 μM; cited from earlier work
IN = conditions: cited from earlier work

## O=c1c(O)c(-c2ccc(O)c(O)c2)oc2c(O)c(OC3OC(CO)C(O)C(O)C3O)cc(O)c12 (stereo not drawn) [Gossypitrin (2), gossypitrin]
[1]; MT-4 cells
  CC50 at 4 days: 101 µM
[2]; MT-2 cells
  CC50 at 4 days: 113 µM
HIV-1 (HTLV-IIIB)
  Effect on HIV-1 replication (p24 core protein levels): ineffective

## O=c1c(O)c(-c2ccc(O)cc2)oc2c(O)c(OC3OC(CO)C(O)C(O)C3O)cc(O)c12 (stereo not drawn) [Herbacitrin (1), herbacitrin]
[1]; MT-4 cells
  CC50 at 4 days: 27.8 µM
[2]; MT-2 cells
  CC50 at 4 days: 63.6 µM
HIV-1 (HTLV-IIIB)
  Effect on HIV-1 replication (p24 core protein levels): reduced HIV-1 replication
[3]; listed as Herbacitrin
  Inhibition of HIV-1 reverse transcriptase activity: inhibit
[3]; listed as herbacitrin
  Inhibition of HIV-1 reverse transcriptase activity: significantly inhibited
[4]; listed as Herbacitrin
  Inhibition of HIV-1 integrase activity: active
[4]; listed as herbacitrin
  Inhibition of HIV-1 integrase activity: inhibited

## O=c1c(O)c(-c2ccc(O)c(O)c2)oc2cc(O)cc(O)c12 [Quercetin (3), quercetin]
[1]
  CC50 at 4 days: 108 µM
[2]
  CC50 at 4 days: 157 µM
HIV-1 (HTLV-IIIB)
  Effect on HIV-1 replication (p24 core protein levels): reduced HIV-1 replication
HIV-1 [5]
  EC50 inhibition of syncytium formation: 42.55 µg/mL
HIV-1 [6]
  EC50 protection of HIV-1 induced cytopathic effects: 23.2 µg/mL
HIV-1 BaL, HIV-1 MN
  IC50: 29.8 to 89 µM
HIV [7]
  Anti-HIV activity (HIV replication, virus infectivity): significant anti-HIV activity

## O=c1cc(-c2ccc(O)c(O)c2)oc2cc(O[C@@H]3O[C@H](CO)[C@@H](O)[C@H](O)[C@H]3OS(=O)(=O)O)cc(O)c12 [Thalassiolin A]
[8]
  Inhibitory concentration against the strand transfer reaction: submicromolar
HIV [9]
  IC50: ~30 µM
MT-2 cells
  Cytotoxicity: no cytotoxicity

## O=c1c(O)c(-c2ccc(O)c(O)c2)oc2cc(O)c(O)c(O)c12 [quercetagetin, quercetagetin (6-hydroxyquercetin)]
IN
  Inhibition of viral cleavage and integration: strong inhibitor
